Source: paper PMC6982040, “A Purified Aspartic Protease from Akkermansia Muciniphila Plays an Important Role in Degrading Muc2” (International Journal of Molecular Sciences, 2019)
Square brackets hold non-standard residues; d marks the D form. Peptide text beside a SMILES is read from it. * marks the point of attachment. Sta = CC(C)C[C@H](N)[C@@H](O)CC(=O)O; Isovaleryl = CC(C)CC(=O)*

Target: T1, Amuc_1434* (Akkermansia muciniphila, UniProt B2UKY3)
T1 construct: recombinant, 6xHis-tag (N-terminal as printed; Pet25b-His vector), E. coli Rosetta (DE3), Ni-Sepharose; ~50 kDa on SDS-PAGE; b10 says amplified from genomic DNA, b49 says gene synthesized
T1 sequence (B2UKY3 22-326): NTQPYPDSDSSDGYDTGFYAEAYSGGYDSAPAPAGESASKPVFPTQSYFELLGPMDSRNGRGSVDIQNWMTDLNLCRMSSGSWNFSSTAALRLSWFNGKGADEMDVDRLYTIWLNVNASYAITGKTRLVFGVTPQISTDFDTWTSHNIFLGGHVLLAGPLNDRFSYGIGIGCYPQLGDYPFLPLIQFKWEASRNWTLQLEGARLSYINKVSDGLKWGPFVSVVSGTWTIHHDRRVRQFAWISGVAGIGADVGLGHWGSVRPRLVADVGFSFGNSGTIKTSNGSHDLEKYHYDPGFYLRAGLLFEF
Assay: hemoglobin hydrolysis, UV absorbance at […] nm
Format: biochemical
Details: read-out: Relative Activity (%)

CC(C)CC(=O)N[C@H](C(=O)N[C@H](C(=O)N[C@@H](CC(C)C)[C@@H](O)CC(=O)N[C@@H](C)C(=O)N[C@@H](CC(C)C)[C@@H](O)CC(=O)O)C(C)C)C(C)C [pepstatin A] (Isovaleryl-VV[Sta]A[Sta]-OH)
activity at 20 µM: 40.1 ± 6.7%

CC(C)C[C@H](NC(=O)[C@@H]1O[C@H]1C(=O)O)C(=O)NCCCCN=C(N)N [E-64]
activity at 10 µM: 88.5 ± 4.7%
